Measured values from US20130060020A1, “Compounds useful for treating neurodegenerative disorders” (Satori Pharmaceuticals, Inc., priority 2011, published 2013).
Read-outs that look alike come from different tables or passages of the source.

Columns and labels:
Type in all cases: cell-based
Aβ-42 = Aβ-42 MSD 3-plex ELISA, conditioned media of 2B7 cells; conditions: Homo sapiens, 5 hours treatment
Protocol: (§1) Assays were conducted to determine the ability of a Compound of Formula I to modulate […], and Aβ-38.
(§2) Plates with capture antibodies were blocked for 1-2 hours at room temperature with 150 μL of the manufactures blocking reagent.
(§3) Cultured 2B7 cells in 96 well plate with 250 μL of media per well until confluent;
(§4) Prepared serial dilutions of compounds in DMSO at 100× the final desired concentration;
(§5) Washed wells with 2B7 cells 1× with 250 μL of media;
(§6) Diluted DMSO stocks 1:100 into media: • Added 250 μL of media containing compounds (1% DMSO) to wells with 2B7 cells for 5 hours at 37° C.
(§7) ELISA Sample Prep: • Diluted conditioned media: 1 part media with 1% DMSO and 1 part blocking buffer; • 150 μL of the 250 μL of conditioned media were used.
(§8) Prepared per manufacturer's protocol (see above). • Seven point standard curve samples were prepared that contained Aβ-42, Aβ-40, and Aβ-38. The highest concentration of Aβ-42 and Aβ-38 was 3,000 pg/mL and the highest concentration of Aβ-40 was 10,000 pg/mL. Subsequent serial dilutions were 1:3 and the final composition of each sample was 1 part blocking buffer and 1 part cell medium containing 1% DMSO.
(§9) Overnight Sample Incubation: • Blocked plates are washed 5× with MSD wash buffer with a plate washer; • […] and blocker G reagent in MSD blocking solution was added; • 25 μL of samples (1 part conditioned media containing 1% DMSO and 1 part MSD blocking buffer) were then added; • Plates were incubated overnight at 4 degrees C. or 2 hours at room temperature.
(§10) Final Wash and Readout: • Washed wells 5× with MSD wash buffer; • Added 150 μL 2×MSD read buffer; • Read with MSD imager.
(§11) Aβ peptide levels for each peptide were calculated from the standard curve using the MSD software provided with the MSD 2400 Imager. Percent vehicle values for each compound dosage were then calculated and fit to a 4 parameter curve generating IC50 values.
(§12) Conditioned media from 2B7 cells (Mayo) was collected after 5 hours of treatment and diluted with 1 volume of Meso Scale Discovery (MSD, Gaithersburg Md.) blocking buffer (1% BSA in MSD wash buffer). For total Aβ measurements, standard-bind, multi-array single spot 96 well MSD ELISA plates were coated with unlabeled 4G8 capture antibody (Covance, Princeton, N.J.) overnight at 4° C. and then blocked with 5% BSA in MSD wash buffer for 1 hour at room temperature with orbital shaking Diluted 2B7 conditioned media were added to the blocked in-house total Aβ MSD plates with SULFO-TAG 6E10 antibody (MSD). For Aβ38, 40 and 42 measurements, diluted 2B7 conditioned media were added to blocked human (6E10) Aβ 3-Plex plates (MSD). Total Aβ and Aβ 3-Plex plates were incubated for 2 hours at room temperature with orbital shaking followed by washing and reading according to the manufacturer's instructions (SECTOR® Imager 2400, MSD). Aβ concentrations were converted to percent vehicle values and used to construct dose response curves which were fitted to […] using GraphPad Prism version 5.00 for Windows, GraphPad Software, San Diego Calif. USA.

Aβ-38 = Aβ-38 MSD 3-plex ELISA, conditioned media of 2B7 cells; conditions: Homo sapiens, 5 hours treatment
Protocol: as §1, §2, §3, §4, §5, §6, §7, §8, §9, §10, §11, §12

Aβ-40 = Aβ-40 MSD 3-plex ELISA, conditioned media of 2B7 cells; conditions: Homo sapiens, 5 hours treatment
Protocol: as §1, §2, §3, §4, §5, §6, §7, §8, §9, §10, §11, §12

Notch processing (NICD) = assay: Notch assay: NICD appearance in SUP-T1 cells (western blot); conditions: 18 hours; for Notch % inhib: Notch inhib conc class D (1001-5000 nM); for inhibition at 5 µM: Notch inhib conc class E (>5000 nM)
Protocol: The methods for this assay are broken up into two parts. 1) Growing, dosing and lysing cells 2) Measuring Notch processing (NICD appearance) and data manipulation. Cell viability is also described (CTG). SUP-T1 cells were cultured in T75 flasks in RPMI media (Mediatech 10-041-CV) supplemented with 10% FBS and penicillin/streptomycin at 37° C. in a 5% CO2 atmosphere. One hour prior to drug treatment six well plates were seeded with 1.5 mL of media with cells at a density of 1.0×10^6 cells/mL. The DMSO serial dilutions were diluted 100 fold directly into the media with the cells and incubated for 18 hours at 37° C. After treatment 100 μL of treated cells were assayed for viability with the Promega Cell Titer Glo assay system. […] Lysates were spun at 5,000 RPM for 5 minutes and supernatants were collected and analyzed for NICD levels. […] To account for loading discrepancies each NICD band was normalized to the alpha tubulin band in that well. These values were then normalized to vehicle levels and used to plot a dose response curve. IC50 values were obtained from the dose response curves using a four parameter fit method available within Prism's GraphPad graphing suite. Luminescent data from Promega's Cell Titre Glo assay system were normalized to vehicle controls and plotted with NICD levels.

[1] = inflection of dose response curve, read-out: Aβ 42 DR IC50 Inflection
[2] = inflection of dose response curve, read-out: Aβ 38 DR IC50 Inflection
[3] = inflection of dose response curve, read-out: Aβ 40 DR IC50 Inflection

Row | SMILES | IC50 (Aβ-42; [1]) [nM] | IC50 (Aβ-42; read-out: Aβ 42 IC50) [nM] | IC50 (Aβ-38; [2]) [nM] | IC50 (Aβ-38; read-out: Aβ 38 IC50) [nM] | IC50 (Aβ-40; [3]) [nM] | IC50 (Aβ-40; read-out: Aβ 40 IC50) [nM] | Notch % inhib (Notch processing (NICD)) | inhibition at 5 µM (Notch processing (NICD); Homo sapiens) [%] | IC50 (Notch processing (NICD); Homo sapiens, NICD levels) [nM]
1 | CCO[C@@H]([C@H]1C[C@@H](C)[C@H]2[C@H](O1)[C@H](O)[C@@]1(C)[C@@H]3CC[C@H]4C(C)(C)[C@@H](O[C@H]5CN(C6CNC6)CCO5)CC[C@@]45C[C@@]35CC[C@]21C)C(C)(C)O [Compound I-2] | < 100 | 100 to 500 | 100 to 500 | 100 to 500 | > 5000 | 1000 to 5000 | A (A is range from 0-25%) | – | –
2 | CCO[C@@H]([C@H]1C[C@@H](C)[C@H]2[C@H](O1)[C@H](O)[C@@]1(C)[C@@H]3CC[C@H]4C(C)(C)[C@@H](O[C@H]5CN(CCNCCOC)CCO5)CC[C@@]45C[C@@]35CC[C@]21C)C(C)(C)O [Compound I-60] | 100 to 500 | 100 to 500 | 100 to 500 | 100 to 500 | 1000 to 5000 | 1000 to 5000 | A (A is range from 0-25%) | – | –
3 | CCO[C@@H]([C@H]1C[C@@H](C)[C@H]2[C@H](O1)[C@H](O)[C@@]1(C)[C@@H]3CC[C@H]4C(C)(C)[C@@H](O[C@H]5CN(C6CN(CC(=O)N(C)C)C6)CCO5)CC[C@@]45C[C@@]35CC[C@]21C)C(C)(C)O [Compound I-7] | 100 to 500 | 100 to 500 | – | 100 to 500 | – | 1000 to 5000 | A (A is range from 0-25%) | – | –
4 | CCO[C@@H]([C@H]1C[C@@H](C)[C@H]2[C@H](O1)[C@H](O)[C@@]1(C)[C@@H]3CC[C@H]4C(C)(C)[C@@H](O[C@H]5CN(CCN6CCOCC6)CCO5)CC[C@@]45C[C@@]35CC[C@]21C)C(C)(C)O [Compound I-58] | 100 to 500 | 100 to 500 | – | 501 to 1000 | – | > 5000 | – | 26 to 50 | –
5 | CCO[C@@H]([C@H]1C[C@@H](C)[C@H]2[C@H](O1)[C@H](O)[C@@]1(C)[C@@H]3CC[C@H]4C(C)(C)[C@@H](O[C@H]5CN(C6CCN(C7COC7)CC6)CCO5)CC[C@@]45C[C@@]35CC[C@]21C)C(C)(C)O [Compound I-35] | 100 to 500 | 100 to 500 | – | 501 to 1000 | 1000 to 5000 | 1000 to 5000 | – | – | > 5000
6 | CCO[C@@H]([C@H]1C[C@@H](C)[C@H]2[C@H](O1)[C@H](O)[C@@]1(C)[C@@H]3CC[C@H]4C(C)(C)[C@@H](O[C@H]5CN(CCN(C)CCOC)CCO5)CC[C@@]45C[C@@]35CC[C@]21C)C(C)(C)O [Compound I-61] | 100 to 500 | 100 to 500 | – | 501 to 1000 | 1000 to 5000 | 1000 to 5000 | A (A is range from 0-25%) | – | –
7 | CCO[C@@H]([C@H]1C[C@@H](C)[C@H]2[C@H](O1)[C@H](O)[C@@]1(C)[C@@H]3CC[C@H]4C(C)(C)[C@@H](O[C@H]5CN(C6CN(C)C6)CCO5)CC[C@@]45C[C@@]35CC[C@]21C)C(C)(C)O [Compound I-3] | – | – | – | – | – | – | – | 26 to 50 | –
8 | CCO[C@@H]([C@H]1C[C@@H](C)[C@H]2[C@H](O1)[C@H](O)[C@@]1(C)[C@@H]3CC[C@H]4C(C)(C)[C@@H](O[C@H]5CN(C6CN(CC(=O)N7CCC7)C6)CCO5)CC[C@@]45C[C@@]35CC[C@]21C)C(C)(C)O [Compound I-8] | 100 to 500 | 100 to 500 | – | 1000 to 5000 | – | 1000 to 5000 | A (A is range from 0-25%) | – | –
9 | CCO[C@@H]([C@H]1C[C@@H](C)[C@H]2[C@H](O1)[C@H](O)[C@@]1(C)[C@@H]3CC[C@H]4C(C)(C)[C@@H](O[C@H]5CN(CCN6CCC6)CCO5)CC[C@@]45C[C@@]35CC[C@]21C)C(C)(C)O [Compound I-57] | < 100 | 100 to 500 | – | 100 to 500 | 1000 to 5000 | 1000 to 5000 | – | 0 to 25 | –
10 | CCO[C@@H]([C@H]1C[C@@H](C)[C@H]2[C@H](O1)[C@H](O)[C@@]1(C)[C@@H]3CC[C@H]4C(C)(C)[C@@H](O[C@H]5CN([C@@H](C)CN6CCC6)CCO5)CC[C@@]45C[C@@]35CC[C@]21C)C(C)(C)O [Compound I-76] | 1000 to 5000 | – | – | – | – | – | B (B is a range from 26-50%) | – | –
11 | CCO[C@@H]([C@H]1C[C@@H](C)[C@H]2[C@H](O1)[C@H](O)[C@@]1(C)[C@@H]3CC[C@H]4C(C)(C)[C@@H](O[C@H]5CN([C@H](C)CN6CCC6)CCO5)CC[C@@]45C[C@@]35CC[C@]21C)C(C)(C)O [Compound I-77] | – | – | – | – | – | – | A (A is range from 0-25%) | – | –
